# From paper PMC6222422, “Synthesis and Biological Evaluation of Novel Indole-Derived Thioureas” (Molecules : A Journal of Synthetic Chemistry and Natural …, 2018)
# Like-named read-outs stand apart in the source and are kept apart here.
# Assays:
# in vitro [1] = conditions: human
# in vitro [2] = conditions: African green monkey (Cercopithecus aethiops)
# S. aureus ATCC 25923 [3] = assay: MIC, twofold serial agar dilution; assay type: cell-based; conditions: Staphylococcus aureus, ATCC25923, 18 h, 35 °C, read-out: minimal inhibitory concentrations (MIC)
# S. aureus NCTC 4163 [4] = assay: disc diffusion method; assay type: cell-based, Staphylococcus aureus; conditions: Staphylococcus aureus, NCTC4163, applied 400 µg per disc, dash = lack of the growth inhibition area, read-out: diameter of growth inhibitory zone (GIZ)
# M. luteus ATCC 9341 [5] = assay: disc diffusion method; assay type: cell-based, Micrococcus luteus; conditions: Micrococcus luteus, ATCC9341, applied 400 µg per disc, dash = lack of the growth inhibition area, read-out: diameter of growth inhibitory zone (GIZ)
# VSV = assay: microbe, parasite or virus in culture; assay type: cell-based; conditions: Vesicular stomatitis virus, Vero 76, read-out: VSV EC50
# Reo-1 = assay: microbe, parasite or virus in culture; assay type: cell-based, reovirus type-1; conditions: Reovirus sp., BHK, read-out: Reo-1 EC50
# M. luteus ATCC 10240 [6] = assay: disc diffusion method; assay type: cell-based, Micrococcus luteus; conditions: Micrococcus luteus, ATCC10240, applied 400 µg per disc, dash = lack of the growth inhibition area, read-out: diameter of growth inhibitory zone (GIZ)
# B. subtilis ATCC 6633 [7] = assay: disc diffusion method; assay type: cell-based, Bacillus subtilis; conditions: Bacillus subtilis, ATCC6633, applied 400 µg per disc, dash = lack of the growth inhibition area, read-out: diameter of growth inhibitory zone (GIZ)
# B. cereus ATCC 11778 [8] = assay: disc diffusion method; assay type: cell-based, Bacillus cereus; conditions: Bacillus cereus, ATCC11778, applied 400 µg per disc, dash = lack of the growth inhibition area, read-out: diameter of growth inhibitory zone (GIZ)
# in vitro [9] = conditions: cattle (Bos taurus)
# S. aureus NCTC 4163 [10] = assay: MIC, twofold serial agar dilution; assay type: cell-based; conditions: Staphylococcus aureus, NCTC4163, 18 h, 35 °C, read-out: minimal inhibitory concentrations (MIC)
# S. epidermidis (MRSE) = assay: MIC against hospital strains; conditions: Staphylococcus epidermidis
# HIV-1 = assay: microbe, parasite or virus in culture
# HSV-1 = assay: microbe, parasite or virus in culture; assay type: cell-based, human herpes 1; conditions: Human alphaherpesvirus 1, Vero 76, read-out: HSV-1 EC50
# M. luteus ATCC 9341 [11] = assay: MIC, twofold serial agar dilution; assay type: cell-based; conditions: Micrococcus luteus, ATCC9341, 18 h, 35 °C, read-out: minimal inhibitory concentrations (MIC)
# S. aureus ATCC 25923 [12] = assay: disc diffusion method; assay type: cell-based, Staphylococcus aureus; conditions: Staphylococcus aureus, ATCC25923, applied 400 µg per disc, dash = lack of the growth inhibition area, read-out: diameter of growth inhibitory zone (GIZ)
# B. cereus ATCC 11778 [13] = assay: MIC, twofold serial agar dilution; assay type: cell-based; conditions: Bacillus cereus, ATCC11778, 18 h, 35 °C, read-out: minimal inhibitory concentrations (MIC)
# B. subtilis ATCC 6633 [14] = assay: MIC, twofold serial agar dilution; assay type: cell-based; conditions: Bacillus subtilis, ATCC6633, 18 h, 35 °C, read-out: minimal inhibitory concentrations (MIC)
# VV = assay: microbe, parasite or virus in culture; assay type: cell-based; conditions: Orthopoxvirus vaccinia, Vero 76, read-out: VV EC50
# in vitro [15] = conditions: Syrian hamster (Mesocricetus auratus)
# S. aureus ATCC 6538 [16] = assay: MIC, twofold serial agar dilution; assay type: cell-based; conditions: Staphylococcus aureus, ATCC6538, 18 h, 35 °C, read-out: minimal inhibitory concentrations (MIC)
# YFV = assay: microbe, parasite or virus in culture; assay type: cell-based; conditions: Yellow fever virus, BHK, read-out: YFV EC50
# S. aureus ATCC 6538 [17] = assay: disc diffusion method; assay type: cell-based, Staphylococcus aureus; conditions: Staphylococcus aureus, ATCC6538, applied 400 µg per disc, dash = lack of the growth inhibition area, read-out: diameter of growth inhibitory zone (GIZ)
# RSV = assay: microbe, parasite or virus in culture; assay type: cell-based, human respiratory syncytial virus; conditions: for EC50: human respiratory syncytial virus, Vero 76, read-out: RSV EC50
# CV-B5 = assay: microbe, parasite or virus in culture; assay type: cell-based, coxsackievirus B5; conditions: Enterovirus B, CVB5, Vero 76, read-out: CV-B5 EC50
# BVDV = assay: microbe, parasite or virus in culture; assay type: cell-based, bovine viral diarrhoea virus; conditions: Bovine viral diarrhea virus isolates and strains, MDBK, in Bos taurus, read-out: BVDV EC50
# Sb-1 = assay: microbe, parasite or virus in culture; assay type: cell-based, poliovirus type-1; conditions: Enterovirus C, Vero 76, read-out: Sb-1 EC50
# M. luteus ATCC 10240 [18] = assay: MIC, twofold serial agar dilution; assay type: cell-based; conditions: Micrococcus luteus, ATCC10240, 18 h, 35 °C, read-out: minimal inhibitory concentrations (MIC)
# [19] = tested on: HIV-1 A17 (K103N + Y181C mutant); assay: microbe, parasite or virus in culture; assay type: cell-based, Human Immunodeficiency Virus type-1; conditions: Human immunodeficiency virus 1, MT4, 96 h, read-out: EC50 A17
# [20] = tested on: HIV-1 AZT^R strain (67N, 70R, 215F, 219Q); assay: microbe, parasite or virus in culture; assay type: cell-based, Human Immunodeficiency Virus type-1; conditions: Human immunodeficiency virus 1, MT4, read-out: EC50 AZT^R
# [21] = tested on: HIV-1 EFV^R (K103R + V179D + P225H mutant); assay: microbe, parasite or virus in culture; assay type: cell-based, Human Immunodeficiency Virus type-1; conditions: Human immunodeficiency virus 1, MT4, 96 h, read-out: EC50 EFV^R
# [22] = tested on: HIV-1 MDR strain (74V, 41L, 106A, 215Y); assay: microbe, parasite or virus in culture; assay type: cell-based, Human Immunodeficiency Virus type-1; conditions: Human immunodeficiency virus 1, MT4, read-out: EC50 MDR
# [23] = tested on: HIV-1 N119 (Y181C mutant); assay: microbe, parasite or virus in culture; assay type: cell-based, Human Immunodeficiency Virus type-1; conditions: Human immunodeficiency virus 1, MT4, read-out: EC50 N119
# Cytotoxicity, MTT method [24] = conditions: cattle (Bos taurus)
# Cytotoxicity, MTT method [25] = conditions: African green monkey (Cercopithecus aethiops)
# Cytotoxicity, MTT method [26] = conditions: human
# Cytotoxicity, MTT method [27] = conditions: Syrian hamster (Mesocricetus auratus)
# S. aureus ATCC 29213 [28] = assay: disc diffusion method; assay type: cell-based, Staphylococcus aureus; conditions: Staphylococcus aureus, ATCC29213, applied 400 µg per disc, dash = lack of the growth inhibition area, read-out: diameter of growth inhibitory zone (GIZ)
# S. aureus ATCC 29213 [29] = assay: MIC, twofold serial agar dilution; assay type: cell-based; conditions: Staphylococcus aureus, ATCC29213, 18 h, 35 °C, read-out: minimal inhibitory concentrations (MIC)
# [30] = hospital S. epidermidis MRSE strain 430/11
# [31] = hospital S. epidermidis MRSE strain 431/11
# [32] = hospital S. epidermidis MRSE strain 432/11
# [33] = hospital S. epidermidis MRSE strain 433/11
# [34] = hospital S. epidermidis MRSE strain 434/11
# [35] = hospital S. epidermidis MRSE strain 435/11
# [36] = hospital S. epidermidis MRSE strain 436/11
# [37] = hospital S. epidermidis MRSE strain 437/11
# [38] = hospital S. epidermidis MRSE strain 438/11
# [39] = hospital S. epidermidis MRSE strain 439/11
# [40] = Human immunodeficiency virus 1, MT4, read-out: HIV-1 EC50
compound,measurement,setting,value
"C=C(C)CNC(=S)NCCc1c[nH]c2ccccc12 [Compound 19, 1-(2-(1H-Indol-3-yl)ethyl)-3-(2-methylallyl)thiourea]",melting point,,141 to 143 °C
same,CC50,in vitro [1],> 100 µM
same,CC50,in vitro [2],89 µM
same,MIC,S. aureus ATCC 25923 [3],400 µg/mL
same,zone of inhibition at 400 µg/disc,S. aureus NCTC 4163 [4],12 mm
same,zone of inhibition at 400 µg/disc,M. luteus ATCC 9341 [5],13 mm
same,EC50,VSV,> 89 µM
same,EC50,Reo-1,> 35 µM
same,zone of inhibition at 400 µg/disc,M. luteus ATCC 10240 [6],14 mm
same,zone of inhibition at 400 µg/disc,B. subtilis ATCC 6633 [7],13 mm
same,zone of inhibition at 400 µg/disc,B. cereus ATCC 11778 [8],13 mm
same,CC50,in vitro [9],> 100 µM
same,MIC,S. aureus NCTC 4163 [10],400 µg/mL
same,MIC,S. epidermidis (MRSE); [30],12.5 µg/mL
same,MIC,S. epidermidis (MRSE); [31],100 µg/mL
same,MIC,S. epidermidis (MRSE); [32],12.5 µg/mL
same,MIC,S. epidermidis (MRSE); [33],50 µg/mL
same,MIC,S. epidermidis (MRSE); [34],12.5 µg/mL
same,MIC,S. epidermidis (MRSE); [35],50 µg/mL
same,MIC,S. epidermidis (MRSE); [36],100 µg/mL
same,MIC,S. epidermidis (MRSE); [37],200 µg/mL
same,MIC,S. epidermidis (MRSE); [38],100 µg/mL
same,MIC,S. epidermidis (MRSE); [39],50 µg/mL
same,EC50,HIV-1; [40],> 100 µM
same,EC50,HSV-1,> 89 µM
same,MIC,M. luteus ATCC 9341 [11],200 µg/mL
same,zone of inhibition at 400 µg/disc,S. aureus ATCC 25923 [12],12 mm
same,MIC,B. cereus ATCC 11778 [13],200 µg/mL
same,MIC,B. subtilis ATCC 6633 [14],400 µg/mL
same,EC50,VV,> 89 µM
same,CC50,in vitro [15],35 µM
same,MIC,S. aureus ATCC 6538 [16],200 µg/mL
same,EC50,YFV,> 35 µM
same,zone of inhibition at 400 µg/disc,S. aureus ATCC 6538 [17],11 mm
same,EC50,RSV,> 89 µM
same,EC50,CV-B5,> 89 µM
same,EC50,BVDV,≥ 100 µM
same,EC50,Sb-1,> 89 µM
same,MIC,M. luteus ATCC 10240 [18],50 µg/mL
Cc1ccnc2c1NC(=O)c1cccnc1N2C1CC1 [Nevirapine],CC50,in vitro [1],> 100 µM
same,EC50,[19],80 µM
same,EC50,"HIV-1; Human immunodeficiency virus 1, MT4, read-out: EC50 HIV-1",0.08 ± 0.005 µM
same,EC50,[20],0.078 ± 0.008 µM
same,EC50,[21],100 µM
same,EC50,[22],5 ± 0.6 µM
same,EC50,[23],6.3 ± 0.05 µM
"COc1ccc(NC(=S)NCCc2c[nH]c3ccccc23)cc1 [Compound 2, 1-(2-(1H-Indol-3-yl)ethyl)-3-(4-methoxyphenyl)thiourea]",melting point,,146 to 148 °C
same,EC50,VSV,> 56 µM
same,EC50,Reo-1,> 44 µM
same,CC50,"Cytotoxicity, MTT method [24]",> 100 µM
same,CC50,"Cytotoxicity, MTT method [25]",56 µM
same,EC50,HIV-1; [40],> 32 µM
same,EC50,HSV-1,> 56 µM
same,CC50,"Cytotoxicity, MTT method [26]",32 µM
same,EC50,VV,> 56 µM
same,EC50,YFV,> 44 µM
same,EC50,RSV,> 56 µM
same,EC50,CV-B5,> 56 µM
same,EC50,BVDV,> 100 µM
same,EC50,Sb-1,> 56 µM
same,CC50,"Cytotoxicity, MTT method [27]",44 µM
"S=C(NCCc1c[nH]c2ccccc12)Nc1ccccc1Br [Compound 15, 1-(2-(1H-Indol-3-yl)ethyl)-3-(2-bromophenyl)thiourea]",melting point,,150 to 152 °C
same,CC50,in vitro [1],46 µM
same,CC50,in vitro [2],46 µM
same,MIC,S. aureus ATCC 25923 [3],100 µg/mL
same,zone of inhibition at 400 µg/disc,S. aureus NCTC 4163 [4],11 mm
same,zone of inhibition at 400 µg/disc,M. luteus ATCC 9341 [5],13 mm
same,zone of inhibition at 400 µg/disc,S. aureus ATCC 29213 [28],11 mm
same,EC50,VSV,> 46 µM
same,EC50,Reo-1,> 28 µM
same,zone of inhibition at 400 µg/disc,M. luteus ATCC 10240 [6],14 mm
same,zone of inhibition at 400 µg/disc,B. subtilis ATCC 6633 [7],15 mm
same,zone of inhibition at 400 µg/disc,B. cereus ATCC 11778 [8],14 mm
same,CC50,in vitro [9],48 µM
same,MIC,S. aureus NCTC 4163 [10],50 µg/mL
same,MIC,S. aureus ATCC 29213 [29],50 µg/mL
same,MIC,S. epidermidis (MRSE); [30],400 µg/mL
same,MIC,S. epidermidis (MRSE); [31],50 µg/mL
same,MIC,S. epidermidis (MRSE); [32],50 µg/mL
same,MIC,S. epidermidis (MRSE); [33],50 µg/mL
same,MIC,S. epidermidis (MRSE); [34],50 µg/mL
same,MIC,S. epidermidis (MRSE); [35],100 µg/mL
same,MIC,S. epidermidis (MRSE); [36],100 µg/mL
same,MIC,S. epidermidis (MRSE); [37],100 µg/mL
same,MIC,S. epidermidis (MRSE); [38],200 µg/mL
same,MIC,S. epidermidis (MRSE); [39],50 µg/mL
same,EC50,HIV-1; [40],> 46 µM
same,EC50,HSV-1,> 46 µM
same,MIC,M. luteus ATCC 9341 [11],200 µg/mL
same,zone of inhibition at 400 µg/disc,S. aureus ATCC 25923 [12],11 mm
same,MIC,B. cereus ATCC 11778 [13],50 µg/mL
same,MIC,B. subtilis ATCC 6633 [14],50 µg/mL
same,EC50,VV,> 46 µM
same,CC50,in vitro [15],28 µM
same,MIC,S. aureus ATCC 6538 [16],50 µg/mL
same,EC50,YFV,> 28 µM
same,zone of inhibition at 400 µg/disc,S. aureus ATCC 6538 [17],12 mm
same,activity against RSV (in words),RSV,moderately active
same,EC50,RSV,20 ± 2.5 µM
same,EC50,CV-B5,> 46 µM
same,EC50,BVDV,> 48 µM
same,EC50,Sb-1,> 46 µM
same,MIC,M. luteus ATCC 10240 [18],50 µg/mL
